Test results as given in PMC10530652 (BME Frontiers, 2021).

Columns and labels:
MMP-2 = target: T1, MMP-2 (Homo sapiens, UniProt P08253); assay: In vitro enzymatic validation of FIB One with recombinant MMP-2 (plate reader); type: biochemical; conditions: MMP 30 nM
T1 construct: recombinant MMPs (Enzo Life Sciences) (active domains of MMP-1, MMP-2, MMP-3, MMP-7, MMP-8, MMP-9, MMP-10, MMP-11, MMP-12, and MMP-13); purchased Enzo Life Sciences
Procedure: (§1) To determine the enzymatic specificity of FIB One, the probe was incubated at a concentration of 1 μM (unless otherwise stated) with the recombinant MMPs (Enzo Life Sciences) (active domains of MMP-1, MMP-2, MMP-3, MMP-7, MMP-8, MMP-9, MMP-10, MMP-11, MMP-12, and MMP-13, all at 30 nM), thrombin (Sigma Aldrich) (5 U/mL), factor Xa (Sigma Aldrich) (500 nM), plasmin (Sigma Aldrich) (30 nM), and human neutrophil elastase (30 nM). Where appropriate, enzymes were incubated with specific inhibitors for 30 min at 37°C prior to addition of FIB One. […] Enzyme free reactions served as a control. Enzymatic reactions were performed in MMP buffer (10 mM CaCl2, 6.1 g Tris-HCl, 8.6 g NaCl per litre, pH 7.5) in a final volume of 20 μL. Reactions were performed in duplicate in 384-well plates (Life Technologies) with optically clear plate seals (Thermo Scientific) and repeated thrice (independently). Fluorescence signal was measured for up to 60 min, ex/em 485/528 nm using microplate reader (BioTek Synergy H1 multimode reader). Data were normalised to buffer alone and are presented as fold-change in signal (relative fluorescent units, RFU) compared to enzyme-free controls. Data were plotted using Prism 7 (GraphPad Software Inc., La Jolla, CA, USA).

MMP-13 = target: T2, MMP-13 (Homo sapiens, UniProt P45452); assay: In vitro enzymatic validation of FIB One with recombinant MMP-13 (plate reader); type: biochemical; conditions: MMP 30 nM
T2 construct: recombinant MMPs (Enzo Life Sciences) (active domains of MMP-1, MMP-2, MMP-3, MMP-7, MMP-8, MMP-9, MMP-10, MMP-11, MMP-12, and MMP-13); purchased Enzo Life Sciences
Procedure: as §1, with “Fluorescence signal was measured for up to 60 min, ex/em 485/528 nm using microplate reader (BioTek Synergy H1 multimode reader).” left out

erythrocyte = assay: Erythrocyte hemolysis; type: cell-based
Crl:WI(Han) rats = assay: Single intratracheal administration toxicity study of FIB One; type: in vivo; conditions: 100 µg/animal (500 µg/mL)
Procedure: Assessment of toxicity of FIB One was based on clinical signs, body weight, food consumption and clinical and anatomic pathology evaluations. Complete necropsies were performed on all animals with a recording of macroscopic abnormalities for all tissues. Organ weights and microscopic examinations were conducted as indicated.

[1] = tested on: Salmonella typhimurium strain TA98; assay: Reduced test article AMES test, TA98; type: cell-based; conditions: up to 250 μg/well, in the absence and presence of rat liver S-9
Procedure: These conditions included treatments at concentrations up to 250 μg/well (a 20-fold pro rata reduction from the standard regulatory Ames assay maximum concentration), in the absence and in the presence of a rat liver metabolic activation system (S-9).

[2] = Stability study of AZD1236 aqueous formulation (HPLC); type: physicochemical; conditions: for Conc. / pH: aqueous formulation; for Conc. / Total imp. RRT(%): HPLC; for ∆%: relative to starting concentration of 70µg/5mL
Procedure: Summary table of stability as assessed by HPLC over 24 months stored under GMP conditions at RT. Data shown in blue represents inverted position vials. ∆% is relative to starting concentration of 70µg/5mL at time zero. Acceptance criteria: Retention time (RT) for AZD1236 is 3.97 min (Range 3.40-4.50 min). Total impurities – report as RRT (%) for each impurity. Biological functionality LOD = >21µg/5mL. pH 7.5 (7.0-8.0).

[3] = FIB One 1 μM, MMP buffer pH 7.5, ex/em 485/528 nm, fold-change vs enzyme-free control, n=3 in duplicate
[4] = AZD1236 0.11-14 µM, FIB One 1 µM
[5] = room temperature, 12m, 1st of 2 vials
[6] = room temperature, 12m, 2nd of 2 vials
[7] = room temperature, 18m, 1st of 2 vials
[8] = room temperature, 18m, 2nd of 2 vials
[9] = room temperature, 24m, 1st of 2 vials
[10] = room temperature, 24m, 2nd of 2 vials
[11] = room temperature, 1m, 1st of 2 vials
[12] = room temperature, 1m, 2nd of 2 vials
[13] = room temperature, 3m, 1st of 2 vials
[14] = room temperature, 3m, 2nd of 2 vials
[15] = room temperature, 6m, 1st of 2 vials
[16] = room temperature, 6m, 2nd of 2 vials
[17] = room temperature, 10.5m, 1st of 2 vials
[18] = room temperature, 10.5m, 2nd of 2 vials
[19] = room temperature, 24h, 1st of 2 vials
[20] = room temperature, 24h, 2nd of 2 vials
[21] = room temperature, 15d, 1st of 2 vials
[22] = room temperature, 15d, 2nd of 2 vials

T1 sequence (P08253 110-446 limits assumed): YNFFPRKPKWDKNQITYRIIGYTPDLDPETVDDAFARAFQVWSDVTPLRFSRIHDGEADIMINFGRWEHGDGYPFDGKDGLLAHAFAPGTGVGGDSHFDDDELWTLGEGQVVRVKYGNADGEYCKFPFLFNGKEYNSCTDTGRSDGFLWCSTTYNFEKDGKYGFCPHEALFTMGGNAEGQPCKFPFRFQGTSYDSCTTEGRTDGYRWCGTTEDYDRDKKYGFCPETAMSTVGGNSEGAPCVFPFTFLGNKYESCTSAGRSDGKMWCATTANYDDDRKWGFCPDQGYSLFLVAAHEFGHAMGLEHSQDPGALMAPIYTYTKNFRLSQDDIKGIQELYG

With (Pro-Phe-Gly-Nle-Lys-βAla)3 [FIB One] the “fluorescent amplification of FIB One on exposure to enzyme” value (MMP-2; [3]) was “rapid and specific fluorescent amplification”, the “fluorescent amplification of FIB One on exposure to enzyme” value (MMP-13; [3]) was “rapid and specific fluorescent amplification” and the “signal amplification compared with analogous monomeric linear structure (FRET-monomer)” value (MMP-13; probes 1 µM, 10 min incubation, n=3 in duplicate) was “improved signal amplification”. For the same substance, the erythrocyte hemolysis (erythrocyte) was “absence of erythrocyte hemolysis”, the “deaths, clinical signs, body weight, food consumption, clinical or anatomic pathology” value (Crl:WI(Han) rats) was “no deaths, no adverse clinical signs and no effects of treatment” and the mutation induction [1] was “did not induce mutation”.
In the case of AZD1236, the “inhibition of MMP” value (MMP-2; [4]) is reported as “ability to inhibit”, the “inhibition of MMP” value (MMP-13; [4]) is reported as “ability to inhibit” and the “biological functionality in aqueous formulation” value ([2]; 24 months, GMP conditions at RT, biological functionality LOD = >21µg/5mL) is reported as “remains biologically functional”. For the same substance, the “degradation in aqueous formulation of the drug product (HPLC traces)” value ([2]; after 24 months, stored at ambient temperature) was “no degradation”, the Conc. ([2]; room temperature, 1m, 1st of 2 vials (one inverted)) was 77.0 µg per 5mL and the Conc. ([2]; room temperature, 1m, 2nd of 2 vials (one inverted)) was 76.8 µg per 5mL. For the same substance, the Conc. ([2]; room temperature, 3m, 1st of 2 vials (one inverted)) was 69.4 µg per 5mL, the Conc. ([2]; room temperature, 3m, 2nd of 2 vials (one inverted)) was 69.4 µg per 5mL and the Conc. ([2]; room temperature, 6m, 1st of 2 vials (one inverted)) was 70.8 µg per 5mL. The Conc. ([2]; room temperature, 6m, 2nd of 2 vials (one inverted)) was 70.6 µg per 5mL, the Conc. ([2]; room temperature, 10.5m, 1st of 2 vials (one inverted)) was 71.1 µg per 5mL and the Conc. ([2]; room temperature, 10.5m, 2nd of 2 vials (one inverted)) was 70.7 µg per 5mL. It also gave a pH [2, 5] of 7.5, a pH [2, 6] of 7.5 and a Conc. ([2]; room temperature, 12m, 1st of 2 vials (one inverted)) of 70.0 µg per 5mL. It also gave a Conc. ([2]; room temperature, 12m, 2nd of 2 vials (one inverted)) of 69.2 µg per 5mL, a pH [2, 7] of 7.5 and a pH [2, 8] of 7.5. The Conc. ([2]; room temperature, 18m, 1st of 2 vials (one inverted)) was 70.4 µg per 5mL, the Conc. ([2]; room temperature, 18m, 2nd of 2 vials (one inverted)) was 70.2 µg per 5mL and the pH [2, 9] was 7.5. For the same substance, the pH [2, 10] was 7.5, the Conc. ([2]; room temperature, 24m, 1st of 2 vials (one inverted)) was 72.96 µg per 5mL and the Conc. ([2]; room temperature, 24m, 2nd of 2 vials (one inverted)) was 72.52 µg per 5mL. The Conc. ([2]; room temperature, 24h, 1st of 2 vials (one inverted)) was 74.3 µg per 5mL, the Conc. ([2]; room temperature, 24h, 2nd of 2 vials (one inverted)) was 74.5 µg per 5mL and the Conc. ([2]; room temperature, 15d, 1st of 2 vials (one inverted)) was 70.2 µg per 5mL. The Conc. ([2]; room temperature, 15d, 2nd of 2 vials (one inverted)) was 70.3 µg per 5mL, the pH ([2]; timepoint 0) was 7.5 and the “∆%” value [2, 11] was “+10.0%”. For the same substance, the “∆%” value [2, 12] was “+9.70%”, the “∆%” value [2, 13] was -0.90% and the “∆%” value [2, 14] was -0.90%. For the same substance, the “∆%” value [2, 15] was “+1.00%”, the “∆%” value [2, 16] was “+0.80%” and the “∆%” value [2, 17] was “+1.50%”. For the same substance, the “∆%” value [2, 18] was “+1.00%”, the “∆%” value [2, 5] was “+0.00%” and the “∆%” value [2, 6] was -1.15%. The “∆%” value [2, 7] was “+0.6%”, the “∆%” value [2, 8] was “+0.3%” and the “∆%” value [2, 9] was “+4.2%”. The “∆%” value [2, 10] was “+3.6%”, the “∆%” value [2, 19] was “+6.0%” and the “∆%” value [2, 20] was “+6.0%”. For the same substance, the “∆%” value [2, 21] was “+0.14%”, the “∆%” value [2, 22] was “+0.21%” and the “Total imp. RRT(%)” value [2, 11] was “ND/NQ ND/NQ”. The “Total imp. RRT(%)” value [2, 12] was “ND/NQ ND/NQ”, the “Total imp. RRT(%)” value [2, 13] was “ND/NQ ND/NQ” and the “Total imp. RRT(%)” value [2, 14] was “ND/NQ ND/NQ”. The “Total imp. RRT(%)” value [2, 15] was “ND/NQ ND/NQ”, the “Total imp. RRT(%)” value [2, 16] was “ND/NQ ND/NQ” and the “Total imp. RRT(%)” value [2, 17] was “ND/NQ ND/NQ”. For the same substance, the “Total imp. RRT(%)” value [2, 18] was “ND/NQ ND/NQ”, the “Total imp. RRT(%)” value [2, 5] was “ND/NQ ND/NQ” and the “Total imp. RRT(%)” value [2, 6] was “ND/NQ ND/NQ”. For the same substance, the “Total imp. RRT(%)” value [2, 7] was “ND/NQ ND/NQ”, the “Total imp. RRT(%)” value [2, 8] was “ND/NQ ND/NQ” and the “Total imp. RRT(%)” value [2, 9] was “ND/NQ ND/NQ”. For the same substance, the “Total imp. RRT(%)” value [2, 10] was “ND/NQ ND/NQ”, the “Total imp. RRT(%)” value [2, 19] was “ND/NQ ND/NQ” and the “Total imp. RRT(%)” value [2, 20] was “ND/NQ ND/NQ”. The “Total imp. RRT(%)” value [2, 21] was “ND/NQ ND/NQ” and the “Total imp. RRT(%)” value [2, 22] was “ND/NQ ND/NQ”.
